Values of other authors in patent US5360794A, “Disubstituted and deoxy disubstituted derivatives of α-D-mannofuranosides and β-L-gulofuranosides having anti-inflammatory and anti-proliferative activity” (Medicarb Inc., priority 1992, dated 1994).
Where a name gives a salt, the structure may show the parent alone.

Tested on: rheumatoid arthritis
Conditions: late Phase III clinical trials; cited from earlier work

For `CN(C)CCCO[C@@H]1[C@H]2OC(C)(C)O[C@H]2O[C@@H]1[C@H](O)CO` [Amiprilose HCl, 1,2-O-isopropylidene-3-O-3'-(N', N'-dimethylaminopropyl)-α-D-glucofuranose], the “clinical utility in rheumatoid arthritis” value is given as “demonstrated utility in managing the signs and symptoms of rheumatoid arthritis”.
